According to US9511086B2, “Method for improving immune system function by administering agents that inhibit DNA-dependent protein kinase-directed apoptosis” (The Board of Trustees of the Leland Stanford Junior …, priority 2010, dated 2016):

Assays:
[1] = tested on: CD4+CD45RO− T cells from RA patients; assay: T-cell apoptosis by flow cytometry staining for PI, RA T cells; format: cell-based, human
Protocol: FIG. 5. Inhibition of DNA-PKcs activity protects RA T cells from apoptosis. CD4+CD45RO− T cells were isolated from 6 control donors and 7 RA patients. Cells were maintained in culture without stimulation for 48 h and then were treated with the DNA-PKcs inhibitor IC86621 (50 nM, 100 nM) or vehicle for 24 h. Cells were harvested and (A) T-cell apoptosis was measured by flow cytometry staining for PI. Representative cytometric data from one patient and one control are shown. (B) Frequencies of PI-positive T-cells in the absence and presence of the DNA-PKcs inhibitor from 6 controls and 7 RA patients are presented as mean±SEM.
FIG. 6. Silencing of the DNA-PKcs gene reduces apoptosis in RA T cells. CD4+CD45RO− T cells were purified from 3 control donors and 3 RA patients and transfected with control or DNA-PKcs specific siRNA oligonucleotides by nucleofection. (A, B) Twenty-four hours after transfection, DNA-PKcs transcript levels were quantified by qPCR, and DNA-PKcs protein levels were detected by Western blotting. (C) T-cell apoptosis was analyzed by staining for PI. Representative data from one patient and one control are shown. (D) Cell apoptosis from 3 control and 3 RA samples are presented as mean±SEM.
FIG. 7. […] (A) CD4+CD45RO− T cells were isolated and cultured in the presence of the indicated enzyme inhibitors for 24 h. T-cell apoptosis was quantified through flow cytometry staining for PI. (B) Cells were maintained in culture without stimulation for 48 h and then were treated with the JNK inhibitor. PI-positive T cells were measured after 24 h of treatment with the JNK inhibitor II (5 μM or 10 μM) or vehicle. Frequencies of apoptotic T cells from 6 controls and 7 RA patients are presented as mean±SEM. (C) Representative flow cytometry results from one control and one patient. (D) Flow cytometry analysis of phosphorylated JNK levels in control and RA T cells after culturing without mitogenic stimulation for 72 h. Representative data from one patient and one control are presented. (E) Expression of pJNK protein in n=6 RA and n=6 control samples at 72 h is given as MFI of FITC-pJNK. (F) Flow cytometry analysis of phosphorylated JNK levels in freshly isolated control and RA naïve CD4 T cells. Expression of pJNK protein in n=7 RA and n=7 control samples at day 0 is given as MFI of FITC-pJNK. (G) Quantification of JNK and pJNK protein expression at 72 h by Western blotting. (H) Relative expression levels of pJNK were quantified by measuring band intensities adjusted by total JNK in 6 RA patients and 6 control donors. Data are presented as mean±SEM. (I) CD4+CD45RO− T cells were purified from RA donors and transfected with control or DNA-PKcs-specific siRNA oligonucleotides by nucleofection. Twenty-four hours after transfection, DNA-PKcs and pJNK protein levels were detected by Western blotting. A representative blot from three independent experiments is shown.
Peripheral blood mononuclear cells (PBMC) were separated from whole blood with Lymphocyte Separation Medium (Mediatech Inc., Herndon, Va.). CD45RO^− cells were negatively selected with microbeads (Miltenyi Biotec Inc., Auburn, Calif.), and the naïve CD4^+CD45RO^− population was subsequently selected with CD4 microbeads (autoMACS, Miltenyi Biotec Inc.).
CD4^+CD45RO^− T cells were maintained in a resting state in DMEM without mitogenic stimulation for three days. In selected experiments, T-cell homeostatic cytokines were supplemented. To test for the role of signaling networks in mediating apoptosis, the following inhibitors were added to the cultures at day 0: DNA-PKcs inhibitor IC86621 (Sigma-Aldrich, St. Louis, Mo.), JNK inhibitor II (Calbiochem, La Jolla, Calif.), p38 inhibitor (Alexis Biochemicals, Plymouth Meeting, Pa., SB203580), CaM inhibitor (Calbiochem), NE-KB inhibitor (Calbiochem), and AKT inhibitor (Calbiochem). […]

[2] = target: T1, checkpoint protein kinase 1 (Homo sapiens, UniProt O14757); details: concentrations of up to 100 μM; cited from earlier work
T1 sequence (O14757 1-476): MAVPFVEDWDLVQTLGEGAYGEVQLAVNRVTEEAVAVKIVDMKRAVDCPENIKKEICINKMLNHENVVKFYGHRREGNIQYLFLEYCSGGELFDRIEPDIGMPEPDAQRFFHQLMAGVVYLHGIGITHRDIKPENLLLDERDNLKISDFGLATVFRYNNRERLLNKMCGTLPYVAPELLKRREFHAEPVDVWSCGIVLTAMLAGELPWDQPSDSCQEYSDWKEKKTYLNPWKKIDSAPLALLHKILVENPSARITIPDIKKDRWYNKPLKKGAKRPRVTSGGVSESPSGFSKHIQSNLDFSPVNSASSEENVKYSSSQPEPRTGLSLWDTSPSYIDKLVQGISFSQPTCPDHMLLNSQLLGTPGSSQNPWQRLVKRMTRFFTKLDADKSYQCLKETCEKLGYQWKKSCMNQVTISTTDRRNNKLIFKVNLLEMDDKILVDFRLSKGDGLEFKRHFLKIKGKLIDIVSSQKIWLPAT

ATR = ATR (Homo sapiens, UniProt Q13535); details: concentrations of up to 100 μM; cited from earlier work
ATR, sequence (Q13535 whole entry): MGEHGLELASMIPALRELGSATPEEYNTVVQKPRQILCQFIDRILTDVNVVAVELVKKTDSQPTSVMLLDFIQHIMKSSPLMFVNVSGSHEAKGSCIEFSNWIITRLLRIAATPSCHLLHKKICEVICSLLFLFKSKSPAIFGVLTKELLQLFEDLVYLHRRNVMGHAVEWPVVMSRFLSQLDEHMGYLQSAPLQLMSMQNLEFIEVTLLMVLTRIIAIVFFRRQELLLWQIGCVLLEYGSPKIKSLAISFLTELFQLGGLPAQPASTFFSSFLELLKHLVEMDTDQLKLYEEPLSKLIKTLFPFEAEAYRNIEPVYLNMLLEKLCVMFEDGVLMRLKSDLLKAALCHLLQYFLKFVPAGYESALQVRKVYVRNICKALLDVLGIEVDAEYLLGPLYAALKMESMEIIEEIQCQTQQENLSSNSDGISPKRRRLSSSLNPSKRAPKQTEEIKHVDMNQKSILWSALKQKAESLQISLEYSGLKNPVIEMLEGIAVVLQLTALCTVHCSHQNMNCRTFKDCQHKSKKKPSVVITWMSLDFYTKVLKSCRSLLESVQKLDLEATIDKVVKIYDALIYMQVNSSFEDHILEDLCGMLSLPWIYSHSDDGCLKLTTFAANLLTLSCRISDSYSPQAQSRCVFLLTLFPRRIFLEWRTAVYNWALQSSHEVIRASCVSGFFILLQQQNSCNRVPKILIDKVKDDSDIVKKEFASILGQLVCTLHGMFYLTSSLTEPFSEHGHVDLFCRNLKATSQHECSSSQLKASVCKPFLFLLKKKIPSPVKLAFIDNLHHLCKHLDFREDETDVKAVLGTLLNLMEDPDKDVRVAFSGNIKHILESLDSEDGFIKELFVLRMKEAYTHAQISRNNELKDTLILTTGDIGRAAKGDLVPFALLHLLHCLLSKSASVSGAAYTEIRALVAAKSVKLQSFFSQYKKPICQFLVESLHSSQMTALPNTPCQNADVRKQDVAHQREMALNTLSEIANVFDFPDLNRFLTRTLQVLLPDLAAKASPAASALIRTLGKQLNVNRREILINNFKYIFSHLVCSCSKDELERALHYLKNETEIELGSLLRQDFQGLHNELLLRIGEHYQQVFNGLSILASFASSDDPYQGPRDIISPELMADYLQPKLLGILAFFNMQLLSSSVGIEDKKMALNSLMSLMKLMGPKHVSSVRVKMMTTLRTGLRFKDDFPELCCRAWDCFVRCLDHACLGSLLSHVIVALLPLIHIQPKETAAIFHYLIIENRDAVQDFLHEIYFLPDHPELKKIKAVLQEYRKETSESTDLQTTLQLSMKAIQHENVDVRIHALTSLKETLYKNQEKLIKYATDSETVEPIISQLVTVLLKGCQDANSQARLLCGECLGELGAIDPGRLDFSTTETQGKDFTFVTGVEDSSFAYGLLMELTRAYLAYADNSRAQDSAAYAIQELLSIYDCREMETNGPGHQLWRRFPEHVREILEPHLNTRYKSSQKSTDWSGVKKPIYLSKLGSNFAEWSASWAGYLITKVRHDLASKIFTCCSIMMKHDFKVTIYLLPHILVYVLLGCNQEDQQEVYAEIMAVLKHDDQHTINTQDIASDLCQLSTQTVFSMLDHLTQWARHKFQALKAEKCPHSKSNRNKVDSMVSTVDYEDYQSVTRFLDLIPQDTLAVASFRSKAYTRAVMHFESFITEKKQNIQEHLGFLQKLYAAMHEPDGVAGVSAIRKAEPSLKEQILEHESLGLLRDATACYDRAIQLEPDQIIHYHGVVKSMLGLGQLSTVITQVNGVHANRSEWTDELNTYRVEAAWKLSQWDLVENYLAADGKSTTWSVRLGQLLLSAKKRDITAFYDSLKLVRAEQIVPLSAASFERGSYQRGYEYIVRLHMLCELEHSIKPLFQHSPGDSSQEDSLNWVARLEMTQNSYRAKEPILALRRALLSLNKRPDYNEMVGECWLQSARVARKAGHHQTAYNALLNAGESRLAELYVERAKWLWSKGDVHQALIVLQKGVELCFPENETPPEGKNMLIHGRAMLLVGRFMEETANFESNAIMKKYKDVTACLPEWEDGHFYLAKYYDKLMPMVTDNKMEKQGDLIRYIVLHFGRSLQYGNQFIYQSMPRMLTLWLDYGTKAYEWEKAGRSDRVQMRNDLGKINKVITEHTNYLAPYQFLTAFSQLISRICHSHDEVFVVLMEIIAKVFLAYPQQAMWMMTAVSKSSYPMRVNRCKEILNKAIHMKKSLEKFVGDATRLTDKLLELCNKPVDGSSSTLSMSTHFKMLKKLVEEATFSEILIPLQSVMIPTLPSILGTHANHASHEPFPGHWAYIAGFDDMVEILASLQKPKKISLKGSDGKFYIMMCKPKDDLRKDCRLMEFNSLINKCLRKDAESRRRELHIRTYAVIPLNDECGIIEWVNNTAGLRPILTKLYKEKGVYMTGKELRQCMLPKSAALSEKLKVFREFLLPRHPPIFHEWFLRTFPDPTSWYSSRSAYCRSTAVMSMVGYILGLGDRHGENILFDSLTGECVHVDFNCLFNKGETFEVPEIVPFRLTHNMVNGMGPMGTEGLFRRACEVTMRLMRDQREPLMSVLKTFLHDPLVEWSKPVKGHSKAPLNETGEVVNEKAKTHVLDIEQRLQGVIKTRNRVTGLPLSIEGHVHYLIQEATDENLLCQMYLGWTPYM
ATR, sequence (Q8WXE1 whole entry partner): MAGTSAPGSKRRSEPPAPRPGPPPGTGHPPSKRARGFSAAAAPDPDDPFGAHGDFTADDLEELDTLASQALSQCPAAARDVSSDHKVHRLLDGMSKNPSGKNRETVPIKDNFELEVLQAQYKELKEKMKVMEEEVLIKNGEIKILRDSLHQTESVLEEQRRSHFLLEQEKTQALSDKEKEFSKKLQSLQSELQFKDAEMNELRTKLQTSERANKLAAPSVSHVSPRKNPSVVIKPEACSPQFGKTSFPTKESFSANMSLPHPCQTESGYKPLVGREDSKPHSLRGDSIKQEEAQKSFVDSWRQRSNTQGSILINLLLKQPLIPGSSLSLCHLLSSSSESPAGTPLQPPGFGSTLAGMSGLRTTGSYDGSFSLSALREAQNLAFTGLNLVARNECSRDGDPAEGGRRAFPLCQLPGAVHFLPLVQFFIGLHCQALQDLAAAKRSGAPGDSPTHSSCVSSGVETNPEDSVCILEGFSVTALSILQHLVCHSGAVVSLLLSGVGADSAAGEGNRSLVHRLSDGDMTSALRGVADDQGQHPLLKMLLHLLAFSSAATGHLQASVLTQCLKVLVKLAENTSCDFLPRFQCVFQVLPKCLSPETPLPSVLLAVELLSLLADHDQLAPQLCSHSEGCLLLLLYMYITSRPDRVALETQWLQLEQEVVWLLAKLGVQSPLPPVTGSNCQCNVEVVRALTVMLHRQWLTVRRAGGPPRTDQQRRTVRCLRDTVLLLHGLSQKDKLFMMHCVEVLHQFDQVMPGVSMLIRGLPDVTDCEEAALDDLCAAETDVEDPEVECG

With `CC(=O)c1ccc(N2CCOCC2)cc1O` [IC86621, 1-(2-hydroxy-4-morpholin-4-ylphenyl)ethanone] the “protection of RA T cells from apoptosis, dose dependence” value ([1]; 50 nM, 100 nM) was “dose-dependent”, the “doses at which T cell survival was improved” value ([1]; RA T cells) was 50 to 100 nM and the “survival rates among RA T cells” value ([1]; RA T cells, 48 h culture then inhibitor (50 nM, 100 nM) for 24 h, PI-positive cells) was “improved survival rates”. For the same molecule, the “dose sufficient to normalize apoptotic susceptibility (PI-positive cells reduced to levels of control T cells)” value ([1]; RA T cells, 72 h ex vivo culture) was 100 nM, the “activity against checkpoint protein kinase 1” value [2] was “neither activity” and the “activity against ATR” value (ATR) was “neither activity”.
